# Assay results: US12049543B2, “Copolymer containing cyclic nitroxide radical and trialkoxysilyl in side chain, and use thereof” (CrestecBio Inc., priority 2017, dated 2024)
# Tested on: TWNT-1 (CVCL J364) hepatic stella cells
# Conditions: incubation 2 days
# Description: In the case of this assay kit, it is necessary to note that, although the sorafenib@siRNP can be dissolved in phosphate-buffered saline (PBS), free sorafenib is required to be dissolved in dimethylsulfoxide (DMSO).
smiles,measurement,value
CNC(=O)c1cc(Oc2ccc(NC(=O)Nc3ccc(Cl)c(C(F)(F)F)c3)cc2)ccn1 [sorafenib],inhibition of proliferation of TWNT-1,inhibits the proliferation of TWNT-1
